# Data reported in US20030220524A1, “Sulfur containing compounds” (priority 2000, published 2003).
# Read-outs that look alike come from different tables or passages of the source.
# Legend:
# AML-3 leukemic cell line [1] = assay: Fixed propidium iodide staining, flow cytometry; assay type: cell-based, human; settings: 48 h
# Description: (§1) Adherent cell lines were plated at 35×10^4 cells/60 cm^2 dish the day before exposure to compound. Suspension cells were seeded at 25×10^4 cells/mL in a 6 well dish (Falcon) the day of exposure to compound. Mononucleated, T-cell depleted normal bone marrow cells were seeded at 50×10^4 cells/mL in a 6 well dish the day of exposure to compound. Cells were exposed to solvent control or approximate MTT50 and MTT30 concentrations of the compound. After 48 h of exposure to the compound, cells were harvested, fixed in 80% ethanol for 1 h on ice and labeled with 50 μg/mL propidium iodide (Sigma). Approximately 10^6 cells were analyzed using a XL-MCL flow cytometer (Coulter Corporation, Miami, Fla.) and a FACScalibar cytometer (Becton Dickinson, San Jose, Calif.). Profiles shown are a representative.
# as §1, with “cm2” for “cm^2”, “concentrations.” for “concentrations of the compound.”, “representative. Cell viability counts and Pi staining were performed as previously described (Dimitroulakos, J, Nohynek, D, Backway, K L, Hedley, D W, Yeger, H, Freedman, M H, Minden, M D and Penn, L Z: Increased sensitivity of acute myeloid leukemias to lovastatin-induced apoptosis: A potential therapeutic approach. Blood 93: 1308-18, 1999).” for “representative.”
# [2] = system: Normal bone marrow (mononucleated, T-cell depleted); assay: MTT assay; assay type: cell-based; settings: 48 h, read-out: MTT50
# Description: (§2) All cell lines were assayed as asynchronously growing cells. Leukemic cell lines, OCI-AML-2, OCI-AML-3 (referred to hereafter as AML-2 and AML-3, respectively), NB-4, KK, B1, G2, and W1 were cultured in alpha-minimal essential medium (α-MEM) (Princess Margaret Hospital Media Services) supplemented with 10% fetal bovine serum (FBS) (Sigma, St. Louis, Mo.). Non-transformed, diploid fibroblast lines WI38 and IMR90, were cultured in α-MEM and MEM F-15, respectively supplemented with 10% FBS. Media for IMR90 cells was also supplemented with 1.5 g/L bicarbonate and 1 mM pyruvate. Breast tumour cell lines, MDA-231, SK-BR-3, MCF-7, ZR-751, and melanoma tumour cell lines, WM9, WM983, WM793, 1232, were grown in α-MEM supplemented with 10% fetal bovine serum. Prostate tumour cell lines, DU145 and PC-3, were grown in RPMI 1640 media supplemented with 10% FBS. All cell lines were cultured in the presence of penicillin/streptomycin. Mononucleated cells were isolated from normal bone marrow using Ficoll hypaque and then T-cell depleted. T-cell depletion was performed by incubating the mononucleated bone marrow cells in α-MEM at a concentration of 2×10^7 cells/mL with 10% absor FBS and 10% (v/v) sheep red blood cells for 4 to 16 h. Absor FBS was prepared beforehand by heating FBS at 56° C. for 1 h, incubating with sheep red blood cells at 0.5% (v/v) for 1 h and then filtering the FBS with a […]. The T-cell depleted, mononucleated cells were recovered using Ficoll hypaque and were maintained in α-MEM supplemented with 20% FBS and 10% 5637 ? nditioned media. 5637 conditioned media ? s previously harvested from confluent 5637 cells after a 3 day incubation. Normal bone marrow from bone marrow transplant donor was collected following informed consent according to institutional guidelines.
# (§3) Approximately 20 mg of each compound was dissolved in 5 mL of ACS grade acetone (Sigma) using a 5 mL volumetric flask. Stock solutions of the compounds were stored in the dark at −20° C. Compounds were diluted prior to each experiment.
# (§4) Adherent cells were seeded at 67×10^3 cells/mL in a 96 well plate (Falcon, Mississauga, Ontario) the day prior to exposure to compound. Suspension cells were seeded at 27×10^4 cells/mL in a 96 well plate the day of exposure to compound. Mononucleated, T-cell depleted normal bone marrow cells were seeded at 67×10^4 cells/mL in a 96 well plate the day of exposure to compound. Compounds and solvent control were added to cells and assayed in triplicate or sextuplet. Following 48 h of incubation at 37° C. with 5% CO2, 40 μL of a 5 mg/mL solution of 3-[4,5-dimethylthiazol-2-yl]-2,5-diphenyltetrazolium bromide (MTT) substrate (Sigma) in Dulbecco's phosphate-buffered saline (D-PBS) was added. After 4 h of incubation at 37° C. with 5% CO2, the resulting violet formazan precipitate was solubilized by the addition of 80 μL of a 0.01 M HCI, 10% sodium dodecyl sulfate (SDS; Sigma) solution overnight at 37° C. with 5% CO2. The plates were then analyzed using the BioRad Benchmark Microplate Reader (BioRad Laboratories, Hercules, Calif.) at 570 nm to determine the optical density of the samples. MTT data was analyzed using Prism 3.0 (GraphPad Software, Inc., San Diego, Calif.) by the Chou-Talalay method. MTT graphs shown are a representative experiment.
# (§5) Adherent cells were seeded at 67×10^3 cells/mL in a 96 well plate (Falcon, Mississauga, Ontario) the day prior to exposure to compound. Suspension cells were seeded at 27×10^4 cells/mL in a 96 well plate the day of exposure to compound. Mononucleated, T-cell depleted normal bone marrow cells were seeded at 67×10^4 cells/mL in a 96 well plate the day of exposure to compound. Compounds and solvent control were added to cells and assayed in triplicate or sextuplet. […]
# KK leukemic cell line = assay: MTT assay; assay type: cell-based, human; settings: 48 h, read-out: MTT50
# Description: as §2, §3, §4, §5
# [3] = system: WI38 non-transformed diploid fibroblasts; assay: MTT assay; assay type: cell-based, human; settings: for IC50: read-out: MTT50; for Viability of non-transformed human WI38 fibroblasts following exposure: in words
# Description: as §2, §3, §4, §5
# AML-3 leukemic cell line [4] = assay: MTT assay; assay type: cell-based, human
# Description: as §2, §3, §4, §5
# B1 leukemic cell line = assay: MTT assay; assay type: cell-based, human; settings: 48 h, read-out: MTT50
# Description: as §2, §3, §4, §5
# [5] = Homo sapiens, WI-38, 48 h, WI38 (normal), 48 h
# [6] = Homo sapiens, AML3, 48 h, AML-3, read-out: MTT50
structure (smiles),measurement,setting,value
"CS(C)(=O)=O [Compound A, dimethyl sulfone]",% pre-G1 (Fixed PI),AML-3 leukemic cell line [1]; dose 212 uM (20 ug/mL),0.1%
same,IC50,[2]; Normal bone marrow,> 265 µM
same,IC50,KK leukemic cell line; KK,> 265 µM
same,IC50,"[3]; WI38 (normal), 48 h",> 265 µM
same,Viability of non-transformed human WI38 fibroblasts following exposure,[3],not affected
same,IC50,"AML-3 leukemic cell line [4]; AML-3, 48 h, read-out: MTT50",> 265 µM
"CSSCS(=O)(=O)c1ccc(C)cc1 [Compound C, α-p-toluenesulfonyl dimethyl disulphide]",% G2/M (Fixed PI),AML-3 leukemic cell line [1]; dose 20.2 uM (10 ug/mL),11.1%
same,% pre-G1 (Fixed PI),AML-3 leukemic cell line [1]; dose 20.2 uM (10 ug/mL),10.7%
same,IC50,[2]; Normal bone marrow,20.9 µM
same,IC50,B1 leukemic cell line; B1,13 µM
same,IC50,KK leukemic cell line; KK,31.4 µM
same,IC50,"[3]; WI38 (normal), 48 h",89 µM
same,Viability of non-transformed human WI38 fibroblasts following exposure,[3],decreased
same,IC50,"AML-3 leukemic cell line [4]; AML-3, 48 h, read-out: MTT50",16.9 µM
"CSSCOC(C)=O [I, 2,3-dithiabutyl acetate]",% pre-G1 (Fixed PI),AML-3 leukemic cell line [1]; dose 232.8 uM (5 ug/mL),23.6%
same,IC50,"[2]; T-cell, Normal bone marrow",32.8 µM
same,IC50,"KK leukemic cell line; Homo sapiens, KK",31.5 µM
same,IC50,[3]; [5],76.9 µM
same,Viability of non-transformed human WI38 fibroblasts following exposure,[3],decreased
same,IC50,AML-3 leukemic cell line [4]; [6],31.5 µM
"CSSc1ccc([N+](=O)[O-])cc1 [M, methyl p-nitrophenyl disulphide]",% pre-G1 (Fixed PI),AML-3 leukemic cell line [1]; dose 20 uM,34%
same,% pre-G1 (Fixed PI),AML-3 leukemic cell line [1]; dose 40 uM,56%
same,IC50,"[2]; T-cell, Normal bone marrow",22.6 µM
same,IC50,"B1 leukemic cell line; Homo sapiens, B1",12.7 µM
same,IC50,"KK leukemic cell line; Homo sapiens, KK",10.5 µM
same,IC50,[3]; [5],13.8 µM
same,IC50,"[3]; WI38 (normal), 48 h",17.4 µM
same,IC50,"AML-3 leukemic cell line [4]; AML-3, 48 h, read-out: MTT50",8.53 µM
same,IC50,AML-3 leukemic cell line [4]; [6],15 µM
"CCC(=O)OCSSc1ccccc1 [Compound Q, 1-phenyl-1,2-dithiapropyl propionate]",% G2 increase (Fixed PI),AML-3 leukemic cell line [1]; dose 20 uM,−5%
same,% pre-G1 (Fixed PI),AML-3 leukemic cell line [1]; dose 20 uM,10%
same,% G2 increase (Fixed PI),AML-3 leukemic cell line [1]; dose 40 uM,−9%
same,% pre-G1 (Fixed PI),AML-3 leukemic cell line [1]; dose 40 uM,42%
same,IC50,"[2]; T-cell, Normal bone marrow",> 100 µM
same,IC50,"B1 leukemic cell line; Homo sapiens, B1",14.3 µM
same,IC50,"KK leukemic cell line; Homo sapiens, KK",23.7 µM
same,IC50,[3]; [5],> 100 µM
same,IC50,AML-3 leukemic cell line [4]; [6],22.5 µM
"CSCSSC [Compound N, 2,3,5-trithiahexane]",% G2 increase (Fixed PI),AML-3 leukemic cell line [1]; dose 50 uM,+17%
same,% pre-G1 (Fixed PI),AML-3 leukemic cell line [1]; dose 50 uM,17%
same,% G2 increase (Fixed PI),AML-3 leukemic cell line [1]; dose 150 uM,+14%
same,% pre-G1 (Fixed PI),AML-3 leukemic cell line [1]; dose 150 uM,35%
same,IC50,[2]; T-cell,> 100 µM
same,IC50,B1 leukemic cell line; Homo sapiens,94.4 µM
same,IC50,KK leukemic cell line; Homo sapiens,65.2 µM
same,IC50,"[3]; Homo sapiens, WI-38, 48 h",> 100 µM
same,IC50,"AML-3 leukemic cell line [4]; Homo sapiens, AML3, 48 h, read-out: MTT50, AML-3",51.1 µM
same,IC50,"AML-3 leukemic cell line [4]; read-out: MTT50, AML-3, 48 h",73.4 µM
"CSSCC(=O)c1ccccc1 [Compound P, phenacyl methyl disulphide]",% pre-G1 (Fixed PI),AML-3 leukemic cell line [1]; dose 50 uM,7%
same,% pre-G1 (Fixed PI),AML-3 leukemic cell line [1]; dose 150 uM,66%
same,IC50,"[2]; T-cell, Normal bone marrow",> 100 µM
same,IC50,"B1 leukemic cell line; Homo sapiens, B1",94.4 µM
same,IC50,"KK leukemic cell line; Homo sapiens, KK",65.2 µM
same,IC50,[3]; [5],> 100 µM
same,IC50,AML-3 leukemic cell line [4]; [6],51.1 µM
"COC(=O)CSSC [H, methyl 3,4-dithiopentanoate]",% pre-G1 (Fixed PI),AML-3 leukemic cell line [1]; dose 65.7 uM (10 ug/mL),3.6%
same,IC50,[2]; Normal bone marrow,366 µM
same,IC50,KK leukemic cell line; KK,110 µM
same,IC50,"[3]; WI38 (normal), 48 h",> 164 µM
same,Viability of non-transformed human WI38 fibroblasts following exposure,[3],not affected
same,IC50,"AML-3 leukemic cell line [4]; AML-3, 48 h, read-out: MTT50",93.4 µM
"CS(=O)(=O)CSCS(C)(=O)=O [G, 2,4,6-trithiaheptane 2,2,6,6-tetraoxide]",% G2/M (Fixed PI),AML-3 leukemic cell line [1]; dose 45.8 uM (10 ug/mL),13.5%
same,% pre-G1 (Fixed PI),AML-3 leukemic cell line [1]; dose 45.8 uM (10 ug/mL),0.3%
same,IC50,"[2]; T-cell, Normal bone marrow",114 µM
same,IC50,"KK leukemic cell line; Homo sapiens, KK",114 µM
same,IC50,[3]; [5],114 µM
same,Viability of non-transformed human WI38 fibroblasts following exposure,[3],not affected
same,IC50,AML-3 leukemic cell line [4]; [6],114 µM
"CSSCCS(C)(=O)=O [F, 2,3,6-trithiaheptane 6,6,-dioxide]",% G2/M (Fixed PI),AML-3 leukemic cell line [1]; dose 45.8 uM (10 ug/mL),34.1%
same,% pre-G1 (Fixed PI),AML-3 leukemic cell line [1]; dose 45.8 uM (10 ug/mL),5.1%
same,IC50,[2]; Normal bone marrow,116 µM
same,IC50,KK leukemic cell line; KK,93.4 µM
same,IC50,"[3]; WI38 (normal), 48 h",> 100 µM
same,Viability of non-transformed human WI38 fibroblasts following exposure,[3],not affected
same,IC50,"AML-3 leukemic cell line [4]; AML-3, 48 h, read-out: MTT50",44 µM
CSCSCS(C)(=O)=O [B],% G2/M (Fixed PI),AML-3 leukemic cell line [1]; dose 107 uM (20 ug/mL),13.4%
same,% pre-G1 (Fixed PI),AML-3 leukemic cell line [1]; dose 107 uM (20 ug/mL),0.3%
same,IC50,[2]; Normal bone marrow,> 134 µM
same,IC50,KK leukemic cell line; KK,> 134 µM
same,IC50,"[3]; WI38 (normal), 48 h",> 134 µM
same,Viability of non-transformed human WI38 fibroblasts following exposure,[3],not affected
same,IC50,"AML-3 leukemic cell line [4]; AML-3, 48 h, read-out: MTT50",> 134 µM
"c1ccc(SSc2ccccc2)cc1 [D, diphenyl disulphide]",% pre-G1 (Fixed PI),AML-3 leukemic cell line [1]; dose 91.6 uM (20 ug/mL),24.1%
same,IC50,"[2]; T-cell, Normal bone marrow",19.1 µM
same,IC50,"KK leukemic cell line; Homo sapiens, KK",12.8 µM
same,IC50,[3]; [5],45.3 µM
same,Viability of non-transformed human WI38 fibroblasts following exposure,[3],decreased
same,IC50,AML-3 leukemic cell line [4]; [6],10.1 µM
